Measured values: patent US11952375B2, “Crystalline forms of Mnk inhibitors” (eFFECTOR Therapeutics Inc., priority 2018, dated 2024)

Tests used:
[1] = Solubility noted during palladium scavenging work; type: physicochemical; details: qualitative; precluded use of common solid-supported palladium scavenging agents
[2] = Kinetic slurry study of the free base in various solvent systems; XRPD and equilibrium solubilities give relative polymorph stability; type: physicochemical; details: slurries in various solvent systems, temperatures and water amounts; solids isolated at 2, 4, 6, 24, 72 hours
Method: For example, the free base of (5) was slurried at ambient temperature in various solvent systems, at various temperatures, with varying amounts of water. In each solvent condition, solids were isolated for XRPD analysis at 2, 4, 6, 24, and 72 hours. Equilibrium solubilities in these solvents were then calculated and used to identify ethanol for the final slurry step. The difference in free energy between solid phases with the same composition (i.e., polymorphs, hydrates, or solvates) is directly proportional to their relative solubilities.

## Cc1cc(Nc2cc(N)ncn2)c(=O)n2c1C(=O)NC21CCCCC1 [Compound 5, 6′-((6-aminopyrimidin-4-yl)amino)-8′-methyl-2′H-spiro[cyclohexane-1,3′-imidazo[1,5-a]pyridine]-1′,5′-dione]
[1]
  solubility: Low

## Cc1cc(Nc2cc(N)ncn2)c(=O)n2c1C(=O)NC21CCCCC1 [Form A, 6′-((6-aminopyrimidin-4-yl)amino)-8′-methyl-2′H-spiro[cyclohexane-1,3′-imidazo[1,5-a]pyridine]-1′,5′-dione]
[2]
  thermodynamic stability of polymorph: most thermodynamically stable polymorph
